The source of these data is patent US9067918B2, “Crystalline forms of 2-(2-methylamino-pyrimidin-4-yl)-1H-indole-5-carboxylic acid [ (S)-1-carbamoyl-2-(phenyl-pyrimidin-2-yl-amino)-ethyl ]-amide” (Sanofi, priority 2011, dated 2015).

SMILES strings stand for the structures.

Format in all cases: physicochemical
Data set [1] in a line: Determination of solubility in a mixture of acetone and water (4:1, by volume). To be noted: acetone/water 4:1 by volume. How it is done:
For the determination of the solubility in a mixture of acetone and water (4:1, by volume), samples of 0.5 mg to 50 mg of the test substances were suspended in a defined amount of the solvent (800 mg to 1200 mg) in screw cap vials with a magnetic stirring bar, which were placed in a temperature-controlled multiple stirring device equipped for transmission measurement (Avantium Crystal 16). With stirring at 700 rpm, the vials were cooled from room temperature to 0° C. and then heated to 60° C. with a heating rate of 3° C./h, kept at 60° C. for 2 h and cooled again to 0° C. with a cooling rate of 3° C./h. By means of transmission measurement it was determined whether the sample was dissolved (100% transmission), or crystals were present. For polymorph 1, polymorph 2, hydrate 1 and hydrate 2 of compound I the following solubilities in a mixture of acetone and water (4:1, by volume) were determined.

The nature of another data set: Thermogravimetry (TG). To be noted: for TG weight loss: until the melting point. How it is done:
Thermogravimetric analyses were performed with a METTLER TGA851e instrument. 100 μl Al-crucibles with sealed lid and hole were used and the measurements performed in a nitrogen gas flow of 50 ml/min. The measured data were evaluated with the software STARe V8.10. TG measurements with infra-red (IR) spectroscopic analysis of volatiles were performed with a METTLER TGA851e instrument as described, which was coupled to a Thermo-Nicolet 380 FT-IR spectrometer equipped with a cell for gas phase measurements. The measured IR spectra were evaluated using the software OMNIC V.7.3. In the TG analyses of polymorph 1 and polymorph 2 of compound I until the melting point, insignificant weight losses of 0.2% and 0.7%, respectively, were observed. In the TG analysis of hydrate 1 of compound I, a gradual weight loss of 6.4% was observed between room temperature and 120° C. […] The observed weight loss corresponds to about 1.9 mol of water per mol of 2-(2-methylamino-pyrimidin-4-yl)-1H-indole-5-carboxylic acid [(S)-1-carbamoyl-2-(phenyl-pyrimidin-2-yl-amino)-ethyl]-amide. In the TG FT-IR analysis of hydrate 2 of compound I, a weight loss of 17-18% of water mainly in two steps was observed between room temperature and 140° C., which corresponds to about 6 mol of water per mol of 2-(2-methylamino-pyrimidin-4-yl)-1H-indole-5-carboxylic acid [(S)-1-carbamoyl-2-(phenyl-pyrimidin-2-yl-amino)-ethyl]-amide.

Data set [2] can be described thus: Dynamic vapor sorption (DVS), determination of hygroscopicity. To be noted: for hygroscopicity, water uptake: at a high relative humidity of 80%; for weight increase in sorption step: 25° C. As for the experimental part: For the determination of the hygroscopicity, moisture sorption/desorption isotherms were recorded on a Surface Measurement Systems DVS-1 instrument. […] The data were evaluated with the software DVSWin V.2.15. In the DVS analysis of polymorph 1 and polymorph 2 of compound I, in the sorption steps of the two cycles the following weight increases were observed.

A further data set can be described thus: Solubility (qualitative). To be noted: qualitative statement; for solubility compared with polymorph 1: solvent not stated.
Data set [3] is described as follows: Maturation experiments (slurry conversion), relative stability of crystalline forms. As for the experimental part: By maturation experiments (slurry conversion) at 20° C. the relative stability of polymorphs 1 and 2 and hydrate 1 was investigated.
A polymorph mixture of 81 mg (Mixture of Polymorph 1 and Polymorph 2), 83 mg of Polymorph 1 and 60 mg of hydrate 1 was prepared. The mixture was subjected to XRPD analysis to confirm the presence of all three polymorphs and then distributed into five capillaries. These samples were kept in suspension at 20° C. for five days. After X-ray powder diffraction measurement of the suspensions these were dried over night at 40° C. and <100 mbar and again subjected to X-ray diffraction. Maturation experiments (a) to (e) were performed under the specified conditions, starting with the polymorph mixture described above.

Where [4] appears, read: relative humidity 40%, first value (cycle 1).
[5] abbreviates: relative humidity 40%, second value (cycle 2).
Where [6] appears, read: relative humidity 60%, first value (cycle 1).
[7] abbreviates: relative humidity 60%, second value (cycle 2).
Where [8] appears, read: relative humidity 80%, first value (cycle 1).
The mark [9] stands for this setting: relative humidity 80%, second value (cycle 2).
Setting [10] is: relative humidity 95%, first value (cycle 1).
The mark [11] stands for this setting: relative humidity 95%, second value (cycle 2).

As to `CNc1nccc(-c2cc3cc(C(=O)N[C@@H](CN(c4ccccc4)c4ncccn4)C(N)=O)ccc3[nH]2)n1` [Hydrate 2, 2-(2-methylamino-pyrimidin-4-yl)-1H-indole-5-carboxylic acid [(S)-1-carbamoyl-2-(phenyl-pyrimidin-2-yl-amino)-ethyl]-amide hexahydrate], the entries for the “Solubility [g in 100 g of solvent]” value in data set [1] (36.8° C.), in data set [1] (46.1° C.) and in data set [1] (55.9° C.) were 0.50 g in 100 g of solvent, 1.02 g in 100 g of solvent and 2.61 g in 100 g of solvent, respectively. Also, in the data set “Thermogravimetry (TG)” (between room temperature and 140° C., mainly in two steps), the “TG weight loss (water)” value is recorded as 17-18%.
Consider `CNc1nccc(-c2cc3cc(C(=O)N[C@@H](CN(c4ccccc4)c4ncccn4)C(N)=O)ccc3[nH]2)n1` [Polymorph 2, 2-(2-methylamino-pyrimidin-4-yl)-1H-indole-5-carboxylic acid [(S)-1-carbamoyl-2-(phenyl-pyrimidin-2-yl-amino)-ethyl]-amide], for which, in data set [2], the “hygroscopicity, water uptake” value is recorded as “about 0.4%”. Further, the “weight increase in sorption step” value in data set [2] (setting [4]) was found to be 0.2%; in data set [2] (setting [5]), 0.0%; in data set [2] (setting [6]) it was 0.3%; in data set [2] (setting [7]), 0.1%; in data set [2] (setting [8]) it was 0.4%; in data set [2] (setting [9]), 0.3%. Besides, the “weight increase in sorption step” value worked out at 0.8% in data set [2] (setting [10]) and 0.6% in data set [2] (setting [11]). Also, in the data set “Solubility (qualitative)”, the “solubility compared with polymorph 1” value is recorded as “higher solubility than polymorph 1”. In addition, the “Solubility [g in 100 g of solvent]” value in data set [1] (46.0° C.) is 1.02 g in 100 g of solvent; in data set [1] (57.5° C.) it was 2.48 g in 100 g of solvent. The same compound displayed a TG weight loss in “Thermogravimetry (TG)” of 0.7%.
As to `CNc1nccc(-c2cc3cc(C(=O)N[C@@H](CN(c4ccccc4)c4ncccn4)C(N)=O)ccc3[nH]2)n1` [Hydrate 1, 2-(2-methylamino-pyrimidin-4-yl)-1H-indole-5-carboxylic acid [(S)-1-carbamoyl-2-(phenyl-pyrimidin-2-yl-amino)-ethyl]-amide dihydrate], the hygroscopicity entry in data set [2] (qualitative statement) is “low hygroscopicity”. For the same compound, the “solubility compared with polymorph 1” value in the data set “Solubility (qualitative)” is reported as “higher solubility than polymorph 1”. In addition, the figures for the “Solubility [g in 100 g of solvent]” value in data set [1] (38.6° C.), in data set [1] (49.7° C.) and in data set [1] (57.4° C.) were 2.11 g in 100 g of solvent, 3.39 g in 100 g of solvent and 5.04 g in 100 g of solvent, respectively. The “TG weight loss (water)” value in the data set “Thermogravimetry (TG)” (between room temperature and 120° C.) amounted to 6.4%.
Turning to `CNc1nccc(-c2cc3cc(C(=O)N[C@@H](CN(c4ccccc4)c4ncccn4)C(N)=O)ccc3[nH]2)n1` [Polymorph 1, 2-(2-methylamino-pyrimidin-4-yl)-1H-indole-5-carboxylic acid [(S)-1-carbamoyl-2-(phenyl-pyrimidin-2-yl-amino)-ethyl]-amide], the “hygroscopicity, water uptake” value in data set [2] is recorded as “about 0.9%”. For the same compound, the “weight increase in sorption step” value is reported as 0.5%/0.5% in data set [2] (setting [4]); 0.5%/0.5% in data set [2] (setting [5]); 0.6%/0.6% in data set [2] (setting [6]); 0.6%/0.6% in data set [2] (setting [7]); 0.9%/0.9% in data set [2] (setting [8]); 0.9%/0.9% in data set [2] (setting [9]). In addition, the “weight increase in sorption step” value in data set [2] (setting [10]) turned out to be 1.3%; in data set [2] (setting [11]), 1.4%. The solubility in water entry in the data set “Solubility (qualitative)” was “low solubility in water”. For the same compound, the results for the “Solubility [g in 100 g of solvent]” value in data set [1] (36.9° C.), in data set [1] (44.7° C.) and in data set [1] (60.0° C.) were 0.43 g in 100 g of solvent, 0.50 g in 100 g of solvent and 0.85 g in 100 g of solvent, respectively. Further, the TG weight loss in the data set “Thermogravimetry (TG)” was 0.2%. Also, in data set [3] (at temperatures above about 20° C., confirmed in phase conversion experiments), the “thermodynamic stability among the polymorphs” value is reported as “thermodynamically most stable polymorph”. Moreover, the “thermodynamic stability among polymorphs 1, 2 and hydrate 1” value in data set [3] (maturation experiments (a) to (e) at 20° C.) is listed as “thermodynamically most stable”.
